# Laboratory results reported in patent US6054598A, “Synthesis of 2-alkoxyestradiols” (Pharm-Eco Laboratories, Inc., priority 1998, dated 2000).
# Where two headings read alike, the source gives them in different places.
# Experiments:
# tubulin = assay: Inhibition of polymerization of purified tubulin; type: biochemical, bovine; conditions: for IC50: extent of polymerization after 20 min incubation, 26° C., 350 nm, read-out: Inhibn of Tubulin Polymn IC50
# Description: Electrophoretically homogeneous tubulin was purified from bovine brain as described previously (Hamel et al., Biochemistry 23:4173-4184 (1984)). Determination of IC50 values for the polymerization of purified tubulin was performed as described in D'Amato et al. Proc. Natl. Acad. Sci. U.S.A. 91:3964-3968 (1994). Tubulin was preincubated at 26° C. with varying compound concentrations, reaction mixtures were chilled on ice, GTP (required for the polymerization reaction) was added, and polymerization was followed at 26° C. by turbidimetry at 350 nm in Gilford recording spectrophotometers equipped with electronic temperature controllers. Four instruments were used, and two control reaction mixtures were present in each experiment. The extent of polymerization after a 20 min incubation was determined (the values for the two controls were usually within 5% of each other). IC50 values were determined graphically. […] Inhibition of colchicine binding to tubulin was performed as described previously (D. Amato et al., Proc. Natl. Acad. Sci. U.S.A. 91:3964-3968 (1994)). […] Incubation was for 30 min at 37° C.
# [1] = system: HOP-62 non-small-cell lung cancer cells; assay: NCI anticancer screen, cytotoxicity, HOP-62 non-small-cell lung cancer cells; type: cell-based; conditions: Homo sapiens
# Text: (§1) The effects of the analogs on cancer cell growth was investigated in the National Cancer Institute (NCI) Developmental Therapeutics Program's in vitro panel of approximately 55 cell lines (Grever et al., Seminars in Oncology 19:622 (1992), Alley et al., Cancer Research 48:589 (1988) and Montes et al., J. National Cancer Institute 83:757 (1991)).
# [2] = system: HCT-116 colon cancer cells; assay: NCI anticancer screen, cytotoxicity, HCT-116 colon cancer cells; type: cell-based; conditions: Homo sapiens
# Text: as §1
# [3] = system: SF-539 central nervous system (CNS) cancer cells; assay: NCI anticancer screen, cytotoxicity, SF-539 central nervous system (CNS) cancer cells; type: cell-based; conditions: Homo sapiens
# Text: as §1
# UACC-62 melanoma cells = assay: NCI anticancer screen, cytotoxicity, UACC-62 melanoma cells; type: cell-based; conditions: Homo sapiens
# Text: as §1
# [4] = system: OVCAR ovarian cancer cells; assay: NCI anticancer screen, cytotoxicity, OVCAR ovarian cancer cells; type: cell-based; conditions: Homo sapiens, read-out: cytotoxicity GI50, Ovarian OVCAR
# Text: as §1
# [5] = system: SN12--C renal cancer cells; assay: NCI anticancer screen, cytotoxicity, SN12-C renal cancer cells; type: cell-based; conditions: Homo sapiens, SN12C, read-out: cytotoxicity GI50, Renal SN12-C
# Text: as §1
# [6] = system: DU-145 prostate cancer cells; assay: NCI anticancer screen, cytotoxicity, DU-145 prostate cancer cells; type: cell-based; conditions: Homo sapiens
# Text: as §1
# [7] = system: MDA-MB-435 breast cancer cells; assay: NCI anticancer screen, cytotoxicity, MDA-MB-435 breast cancer cells; type: cell-based; conditions: Homo sapiens
# Text: as §1
# [8] = system: human cancer cell lines (approximately 55); assay: NCI anticancer screen, in vitro panel of approximately 55 cell lines; type: cell-based; conditions: for GI50: read-out: cytotoxicity MGM (mean graph midpoint for all human cancer cell lines tested)
# Text: as §1
# solid tumors = conditions: in mice; Fotsis et al., Nature 368:237 (1994); cited from earlier work
# [9] = HOP-62, read-out: cytotoxicity GI50, Lung HOP-62
# [10] = HCT-116, read-out: cytotoxicity GI50, Colon HCT-116
# [11] = SF-539, read-out: cytotoxicity GI50, CNS SF-539
# [12] = UACC-62, read-out: cytotoxicity GI50, Melanoma UACC-62
# [13] = DU-145, read-out: cytotoxicity GI50, Prostate DU-145
# [14] = MDA-MB-435, read-out: cytotoxicity GI50, Breast MDA-MB-435
SMILES,IC50 (tubulin) [nM],"GI50 [1, 9] [nM]","GI50 [2, 10] [nM]","GI50 [3, 11] [nM]",GI50 (UACC-62 melanoma cells; [12]) [nM],GI50 [4] [nM],GI50 [5] [nM],"GI50 [6, 13] [nM]","GI50 [7, 14] [nM]",GI50 ([8]; Homo sapiens) [nM],other results
"CCOc1cc2c(cc1O)CC[C@@H]1[C@@H]2CC[C@]2(C)[C@@H](O)CC[C@@H]12 [Compound 10, 2-Ethoxyestra-1,3,5(10)-trien03,17β-diol]",910 ± 500,18,26,14,16,16,39,65,< 10,76,"activity on tubulin polymerization relative to 2-methoxy estradiol (1) (tubulin; compared with 2-methoxy estradiol (1)): over three times more active; activity against all the cell lines listed in Table 1 relative to 2-methoxy estradiol (1) ([8]; all the cell lines listed in Table 1, compared with 2-methoxy estradiol (1)): more active"
"COc1cc2c(cc1O)CC[C@@H]1[C@@H]2CC[C@]2(C)[C@@H](O)CC[C@@H]12 [Compound 1, 2-methoxy estradiol, reference compound]",2900 ± 600,,,,,,,,,,"GI50 ([1]; HOP-62, concentration corresponding to 50% growth inhibition, read-out: cytotoxicity GI50, Lung HOP-62): 700 nM; GI50 ([2]; HCT-116, concentration corresponding to 50% growth inhibition, read-out: cytotoxicity GI50, Colon HCT-116): 470 nM; GI50 ([3]; SF-539, concentration corresponding to 50% growth inhibition, read-out: cytotoxicity GI50, CNS SF-539): 320 nM; GI50 (UACC-62 melanoma cells; UACC-62, concentration corresponding to 50% growth inhibition, read-out: cytotoxicity GI50, Melanoma UACC-62): 360 nM; GI50 ([4]; OVCAR, concentration corresponding to 50% growth inhibition): 210 nM; GI50 ([5]; SN12-C, concentration corresponding to 50% growth inhibition): 950 nM; GI50 ([6]; DU-145, concentration corresponding to 50% growth inhibition, read-out: cytotoxicity GI50, Prostate DU-145): 1800 nM; GI50 ([7]; MDA-MB-435, concentration corresponding to 50% growth inhibition, read-out: cytotoxicity GI50, Breast MDA-MB-435): 80 nM; GI50 ([8]; approximately 55 human cancer cell lines, GI50): 1300 nM; apparent signs of toxicity at tumor growth inhibiting doses (solid tumors): no apparent signs of toxicity; inhibition of growth of solid tumors (solid tumors): inhibits their growth; inhibition of neovascularization of solid tumors (solid tumors): potent inhibitor of neovascularization of solid tumors"
"C[C@]12CC[C@@H]3c4cc(OCC(F)(F)F)c(O)cc4CC[C@H]3[C@@H]1CC[C@@H]2O [Compound 9, 2-(2',2',2'-Trifluoroethoxy)estra-1,3,5(10)-Trien-3,17β-Diol]",1700,11600,3220,1380,2320,460,4460,7050,280,2630,
